From BindingDB's records for doi:10.1021/jm9800144 (Smithkline Beecham, 1998) come the findings set out here.

In this assay the target is V-ATPase (Gallus gallus). The assay can be described thus: Compound was tested for inhibition of V-ATPase from Chicken osteoclasts (cOc).

pIC50: −log10 of the molar value.

With `COC(=O)/C(=C\C=C\c1cc2cc(Cl)c(Cl)cc2[nH]1)OC` [(2E,4E)-5-(5,6-Dichloro-1H-indol-2-yl)-2-methoxy-penta-2,4-dienoic acid methyl ester], the negative-log IC50 (pIC50) is 5.72.
